Test results taken from patent US11149031B2, “Substituted N-(3-fluoropropyl)-pyrrolidine compounds, processes for their preparation and therapeutic uses thereof” (SANOFI, priority 2016, dated 2021).

Key:
[1] = biological target: His6-ERα298-554 WT (ERα ligand-binding domain) (Homo sapiens (Human), UniProt P03372); test: Test A: biochemical antagonist activity, LanthaScreen TR-FRET ERα coactivator assay, WT; conditions: asterisk (*): protocol using 10 nM estradiol; read-out: Antagonism WT IC50
Outline: (§1)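 IC50 values come from a 4-parameter logistic fit of the 520:495 nm TR-FRET ratio after overnight room-temperature incubation. The mix held 0.5 nM ERα 298–554 LBD, Tb-labelled anti-His6 antibody, 250 nM PGC1a peptide and 3 nM or 10 nM estradiol, pH 7.4 phosphate buffer with DTT.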

[2] = biological target: His6-ERα298-554 D538G mutant (ERα ligand-binding domain) (Homo sapiens (Human), UniProt P03372, D538G); test: Test A: biochemical antagonist activity, LanthaScreen TR-FRET ERα coactivator assay, D538G mutant; conditions: asterisk (*): protocol using 10 nM estradiol; read-out: Antagonism D538G IC50
Outline: as §1

[3] = biological target: His6-ERα298-554 Y537S mutant (ERα ligand-binding domain) (Homo sapiens (Human), UniProt P03372, Y537S); test: Test A: biochemical antagonist activity, LanthaScreen TR-FRET ERα coactivator assay, Y537S mutant; conditions: asterisk (*): protocol using 10 nM estradiol; read-out: Antagonism Y537S IC50
Outline: as §1

[4] = test system: MCF7 cells (breast tumor cells) WT; test: Test B: cell proliferation/viability assay (CellTiter-Glo) on MCF7 WT; type: cell-based; conditions: Homo sapiens, MCF7, 168 h, 7 days of compound exposure
Outline: (§2)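 MCF7 WT / ER mutant lines (estradiol-independent, Tyr537Ser or Asp538Gly); stripped-serum, phenol red-free MEM; 9 pt 1:5 dil, 3-0.000001 μM final; 7 d; CellTiter-Glo RLU → % viability vs untreated, background-subtracted.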

[5] = test system: MCF7 cells expressing mutant estrogen receptor Tyr 537 Ser; test: Test B: cell proliferation/viability assay (CellTiter-Glo) on MCF7 Tyr 537 Ser mutant; type: cell-based; conditions: Homo sapiens, MCF7, 168 h, MCF7 cells expressing ER Tyr 537 Ser mutant, 7 days of compound exposure, read-out: proliferation MCF7 Y537S IC50
Outline: as §2

[6] = test system: MCF7 cells expressing mutant estrogen receptor Asp 538 Gly; test: Test B: cell proliferation/viability assay (CellTiter-Glo) on MCF7 Asp 538 Gly mutant; type: cell-based; conditions: Homo sapiens, MCF7, 168 h, MCF7 cells expressing ER Asp 538 Gly mutant, 7 days of compound exposure, read-out: proliferation MCF7 D538G IC50
Outline: as §2

[7] = biological target: ERα in MCF7 cells (Homo sapiens (Human), UniProt P03372); test: Test C: estrogen receptor degradation activity, ERα in cell western assay in MCF7 cells; type: cell-based; conditions: for DC50: 4 hours post compound addition, ERα in cell western, read-out: Degradation IC50; for % Degradation at 3 μM: 4 hours, relative to fulvestrant
Outline: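 Cells seeded in stripped-serum medium are dosed the next day across a nine-concentration series (3 down to 0.000018 μM). Four hours later they are fixed, blocked, probed overnight with anti-ERα antibody, then labelled with an Alexa 488 secondary and a DNA dye before plate scanning.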

Sequence of His6-ERα298-554 WT (ERα ligand-binding domain) (P03372 298-554): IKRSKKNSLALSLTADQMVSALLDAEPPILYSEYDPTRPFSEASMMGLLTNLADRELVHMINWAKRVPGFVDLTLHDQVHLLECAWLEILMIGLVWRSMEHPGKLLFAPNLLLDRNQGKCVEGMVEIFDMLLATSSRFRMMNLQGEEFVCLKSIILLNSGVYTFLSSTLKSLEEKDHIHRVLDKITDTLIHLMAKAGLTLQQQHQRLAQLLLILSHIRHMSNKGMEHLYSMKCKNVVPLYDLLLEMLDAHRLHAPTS
Sequence of His6-ERα298-554 D538G mutant (ERα ligand-binding domain) (P03372 298-554 D538G): as the sequence (P03372 298-554) above, with D241G counted along it
Sequence of His6-ERα298-554 Y537S mutant (ERα ligand-binding domain) (P03372 298-554 Y537S): as the sequence (P03372 298-554) above, with Y240S counted along it
Sequence of ERα in MCF7 cells (P03372 whole entry): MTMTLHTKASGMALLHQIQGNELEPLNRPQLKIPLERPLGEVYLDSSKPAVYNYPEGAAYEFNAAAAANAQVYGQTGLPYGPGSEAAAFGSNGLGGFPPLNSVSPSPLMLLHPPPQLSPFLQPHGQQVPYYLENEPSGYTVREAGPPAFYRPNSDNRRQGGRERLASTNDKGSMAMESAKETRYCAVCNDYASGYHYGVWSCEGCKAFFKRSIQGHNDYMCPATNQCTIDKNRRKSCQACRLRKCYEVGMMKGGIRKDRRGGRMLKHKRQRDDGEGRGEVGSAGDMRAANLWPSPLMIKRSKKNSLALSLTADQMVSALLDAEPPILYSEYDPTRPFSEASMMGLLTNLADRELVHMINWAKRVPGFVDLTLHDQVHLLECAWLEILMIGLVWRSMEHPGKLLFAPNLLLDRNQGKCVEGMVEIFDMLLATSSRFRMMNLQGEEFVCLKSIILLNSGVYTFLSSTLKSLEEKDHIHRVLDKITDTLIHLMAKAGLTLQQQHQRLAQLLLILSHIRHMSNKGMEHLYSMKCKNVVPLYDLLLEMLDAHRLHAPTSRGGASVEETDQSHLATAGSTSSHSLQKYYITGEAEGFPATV

SMILES | IC50 [1] [nM] | IC50 [2] [nM] | IC50 [3] [nM] | IC50 [4] [nM] | IC50 [5] [nM] | IC50 [6] [nM] | DC50 [7] [nM] | % Degradation at 3 μM [7] [%]
Cc1cc(C2=C(c3ccc(O[C@H]4CCN(CCCF)C4)cc3)c3ccc(C(=O)O)cc3SCC2)ccc1Cl [Example 211, 4-(4-chloro-3-methyl-phenyl)-5-[4-[(3S)-1-(3-fluoropropyl)pyrrolidin-3-yl]oxyphenyl]-2,3-dihydro-1-benzothiepine-8-carboxylic acid] | 39 | 964 | 475 | 0.4 | 10 | 0.6 | 0.3 | 93
Oc1ccc2c(c1)SCCC(c1ccc(OC(F)(F)F)cc1F)=C2c1ccc(O[C@H]2CCN(CCCF)C2)cc1 [Example 212, 5-[4-[(3S)-1-(3-fluoropropyl)pyrrolidin-3-yl]oxyphenyl]-4-[2-fluoro-4-(trifluoromethoxy)phenyl]-2,3-dihydro-1-benzothiepin-8-ol] | 34 | 800 | 412 | 0.4 | 3 | 0.5 | 2 | 90
Oc1ccc2c(c1)SCCC(c1ccc(OC(F)F)cc1F)=C2c1ccc(O[C@H]2CCN(CCCF)C2)cc1 [Example 213, 4-[4-(difluoromethoxy)-2-fluoro-phenyl]-5-[4-[(3S)-1-(3-fluoropropyl)pyrrolidin-3-yl]oxyphenyl]-2,3-dihydro-1-benzothiepin-8-ol] | 4 | 96 | 55 | 0.3 | 2 | 0.2 | 0.9 | 86
Oc1ccc2c(c1)SCCC(c1ccc(OC(F)(F)F)cc1)=C2c1ccc(O[C@H]2CCN(CCCF)C2)cc1 [Example 214, 5-[4-[(3S)-1-(3-fluoropropyl)pyrrolidin-3-yl]oxyphenyl]-4-[4-(trifluoromethoxy)phenyl]-2,3-dihydro-1-benzothiepin-8-ol] | 38 | 539 | 457 | 0.4 | 6 | 0.7 | 1 | 82
Oc1ccc2c(c1)SCCC(c1ccc(F)nc1F)=C2c1ccc(O[C@H]2CCN(CCCF)C2)cc1 [Example 215, 4-(2,6-difluoro-3-pyridyl)-5-[4-[(3S)-1-(3-fluoropropyl)pyrrolidin-3-yl]oxyphenyl]-2,3-dihydro-1-benzothiepin-8-ol] | 8 | 190 | 86 | 0.1 | 3 | 0.2 | 0.2 | 93
CC(C)(C)c1ccc(C2=C(c3ccc(O[C@H]4CCN(CCCF)C4)cc3)c3ccc(O)cc3SCC2)cc1 [Example 216, 4-(4-tert-butylphenyl)-5-[4-[(3S)-1-(3-fluoropropyl)pyrrolidin-3-yl]oxyphenyl]-2,3-dihydro-1-benzothiepin-8-ol] | 33 | 662 | 543 | 0.6 | 13 | 1 | 0.2 | 88
CCOc1ccc(C2=C(c3ccc(O[C@H]4CCN(CCCF)C4)cc3)c3ccc(O)cc3SCC2)c(F)c1F [Example 217, 4-(4-ethoxy-2,3-difluoro-phenyl)-5-[4-[(3S)-1-(3-fluoropropyl)pyrrolidin-3-yl]oxyphenyl]-2,3-dihydro-1-benzothiepin-8-ol] | 4 | 61 | 39 | 0.1 | 5 | 0.6 | 0.2 | 87
Oc1ccc2c(c1)SCCC(c1ccc(OCF)cc1)=C2c1ccc(O[C@H]2CCN(CCCF)C2)cc1 [Example 218, 4-[4-(fluoromethoxy)phenyl]-5-[4-[(3S)-1-(3-fluoropropyl)pyrrolidin-3-yl]oxyphenyl]-2,3-dihydro-1-benzothiepin-8-ol] | 1 | 25 | 22 | 0.1 | 1 | 0.1 | 0.2 | 78
Cc1noc(C)c1C1=C(c2ccc(O[C@H]3CCN(CCCF)C3)cc2)c2ccc(O)cc2SCC1 [Example 219, 4-(3,5-dimethylisoxazol-4-yl)-5-[4-[(3S)-1-(3-fluoropropyl)pyrrolidin-3-yl]oxyphenyl]-2,3-dihydro-1-benzothiepin-8-ol] | 12 | 233 | 149 | 0.1 | 2 | 0.4 | 0.2 | 90
CCOc1cc(F)c(C2=C(c3ccc(O[C@H]4CCN(CCCF)C4)cc3)c3ccc(O)cc3SCC2)cc1F [Example 220, 4-(4-ethoxy-2,5-difluoro-phenyl)-5-[4-[(3S)-1-(3-fluoropropyl)pyrrolidin-3-yl]oxyphenyl]-2,3-dihydro-1-benzothiepin-8-ol] | 8 | 164 | 84 | 0.4 | 5 | 0.5 | 0.2 | 89
CCOc1ccc(C2=C(c3ccc(O[C@H]4CCN(CCCF)C4)cc3)c3ccc(O)cc3SCC2)c(F)c1Cl [Example 221, 4-(3-chloro-4-ethoxy-2-fluoro-phenyl)-5-[4-[(3S)-1-(3-fluoropropyl)pyrrolidin-3-yl]oxyphenyl]-2,3-dihydro-1-benzothiepin-8-ol] | 11 | 265 | 133 | 0.5 | 8 | 0.6 | 0.2 | 84
Oc1ccc2c(c1)SCCC(c1ccc(SC(F)(F)F)cc1)=C2c1ccc(O[C@H]2CCN(CCCF)C2)cc1 [Example 222, 5-[4-[(3S)-1-(3-fluoropropyl)pyrrolidin-3-yl]oxyphenyl]-4-[4-(trifluoromethylsulfanyl)phenyl]-2,3-dihydro-1-benzothiepin-8-ol] | 18 | 371 | 238 | 4 | 1 | 0.4 | 1 | 80
Nc1ccc(C2=C(c3ccc(O[C@H]4CCN(CCCF)C4)cc3)c3ccc(O)cc3SCC2)c(F)n1 [Example 223, 4-(6-amino-2-fluoro-3-pyridyl)-5-[4-[(3S)-1-(3-fluoropropyl)pyrrolidin-3-yl]oxyphenyl]-2,3-dihydro-1-benzothiepin-8-ol] | 2 | 42 | 24 | 1 | 0.1 | 0.2 | 0.2 | 85
CCN(CC)c1ccc(C2=C(c3ccc(O[C@H]4CCN(CCCF)C4)cc3)c3ccc(O)cc3SCC2)c(F)c1 [Example 224, 4-[4-(diethylamino)-2-fluoro-phenyl]-5-[4-[(3S)-1-(3-fluoropropyl)pyrrolidin-3-yl]oxyphenyl]-2,3-dihydro-1-benzothiepin-8-ol] | 71 | 1480 | 1030 | 3 | 83 | 8 | 3 | 85
